Results as given in PubChem BioAssay AID200 (DTP/NCI, 2004).
“And” between values parts separate entries of the source, which are not always exact repeats. Identical values can stand only once. Toxic doses and inconclusive results are not listed.

Test system: B6C3F1 mice, B16 melanoma ip, median survival T/C
Test: NCI In Vivo Anticancer Drug Screen. Data for tumor model B16 Melanoma (intraperitoneal) in B6C3F1 mice
Conditions: endpoint: median survival time, schedule: Q01DX009 (ip), higher = longer survival
Summary of the method: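 Antitumor effect was judged in mice with transplanted tumors by dividing the treated group's survival measure by that of vehicle controls.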

[1] = dose: 25.0 mg/kg/injection, vehicle: saline
[2] = dose: 50.0 mg/kg/injection, vehicle: saline
[3] = dose: 100.0 mg/kg/injection, vehicle: saline
[4] = dose: 200.0 mg/kg/injection, vehicle: saline

COc1cccc2c1C(=O)c1c(O)c3c(c(O)c1C2=O)C[C@@](O)(C(=O)COC(=O)c1cccnc1)C[C@@H]3OC1CC(N)C(O)C(C)O1 (some centres undefined)
T/C (dose: 0.25 mg/kg/injection, vehicle: saline): 170 % of control
T/C (dose: 0.5 mg/kg/injection, vehicle: saline): 198 % of control
T/C (dose: 1.0 mg/kg/injection, vehicle: saline): 220 % of control
T/C (dose: 2.0 mg/kg/injection, vehicle: saline): 255 % of control

COc1cc2cc(c1Cl)N(C)C(=O)CC(O)C1(C)OC1C(C)C1CC(O)(NC(=O)O1)C(OC)/C=C/C=C(C)C2OC (centres undefined)
T/C (dose: 4.0 micrograms/kg/injection, vehicle: distilled water + alcohol): 105 % of control
T/C (dose: 8.0 micrograms/kg/injection, vehicle: distilled water + alcohol): 96 % of control
T/C (dose: 16.0 micrograms/kg/injection, vehicle: distilled water + alcohol): 102 % of control
T/C (dose: 32.0 micrograms/kg/injection, vehicle: distilled water + alcohol): 88 % of control

CC(=O)OCC1OC(n2ccc(N)nc2=O)C(OC(C)=O)C1OC(C)=O (centres undefined)
T/C (dose: 12.5 mg/kg/injection, vehicle: saline): 106 % of control
T/C [1]: 104 % of control
T/C [2]: 109 % of control
T/C [3]: 108 % of control
T/C [4]: 120 % of control

CCCCCn1c(C)cc(/C=C\c2ccc3cc(C)ccc3[n+]2C)c1C
T/C (dose: 39.0 micrograms/kg/injection, vehicle: Klucel (hydroxypropylcellulose) (HPC)): 93 % of control
T/C (dose: 78.0 micrograms/kg/injection, vehicle: Klucel (hydroxypropylcellulose) (HPC)): 95 % of control
T/C (dose: 156.0 micrograms/kg/injection, vehicle: Klucel (hydroxypropylcellulose) (HPC)): 100 % of control
T/C (dose: 312.0 micrograms/kg/injection, vehicle: Klucel (hydroxypropylcellulose) (HPC)): 100 % of control
T/C (dose: 625.0 micrograms/kg/injection, vehicle: Klucel (hydroxypropylcellulose) (HPC)): 96 % of control

CC(=O)CC(c1ccccc1)c1c(O)c2ccccc2oc1=O (centres undefined)
T/C (dose: 0.05 mg/kg/injection, vehicle: Klucel (hydroxypropylcellulose) (HPC)): 95 % of control
T/C (dose: 0.05 mg/kg/injection, vehicle: saline with Tween-80): 121 % of control and 106 % of control
T/C (dose: 0.1 mg/kg/injection, vehicle: Klucel (hydroxypropylcellulose) (HPC)): 104 % of control
T/C (dose: 0.1 mg/kg/injection, vehicle: saline with Tween-80): 91 % of control
T/C (dose: 0.2 mg/kg/injection, vehicle: Klucel (hydroxypropylcellulose) (HPC)): 93 % of control
T/C (dose: 0.2 mg/kg/injection, vehicle: saline with Tween-80): 124 % of control and 87 % of control
T/C (dose: 0.4 mg/kg/injection, vehicle: Klucel (hydroxypropylcellulose) (HPC)): 108 % of control
T/C (dose: 0.4 mg/kg/injection, vehicle: saline with Tween-80): 111 % of control
T/C (dose: 0.8 mg/kg/injection, vehicle: Klucel (hydroxypropylcellulose) (HPC)): 98 % of control
T/C (dose: 0.8 mg/kg/injection, vehicle: saline with Tween-80): 103 % of control

CC(=O)NCCSSCCCCS(=O)O
T/C [1]: 96 % of control
T/C [2]: 103 % of control
T/C [3]: 98 % of control
T/C [4]: 111 % of control
T/C (dose: 400.0 mg/kg/injection, vehicle: saline): 96 % of control

C[C@]12CCC(=O)C(O)=C1CC[C@@H]1[C@@H]2CC[C@]2(C)C(=O)CC[C@@H]12
T/C (dose: 12.5 mg/kg/injection, vehicle: Klucel (hydroxypropylcellulose) (HPC)): 88 % of control and 95 % of control
T/C (dose: 25.0 mg/kg/injection, vehicle: Klucel (hydroxypropylcellulose) (HPC)): 97 % of control
T/C (dose: 50.0 mg/kg/injection, vehicle: Klucel (hydroxypropylcellulose) (HPC)): 97 % of control and 102 % of control
T/C (dose: 100.0 mg/kg/injection, vehicle: Klucel (hydroxypropylcellulose) (HPC)): 92 % of control and 98 % of control
T/C (dose: 200.0 mg/kg/injection, vehicle: Klucel (hydroxypropylcellulose) (HPC)): 94 % of control and 95 % of control
T/C (dose: 400.0 mg/kg/injection, vehicle: Klucel (hydroxypropylcellulose) (HPC)): 87 % of control and 93 % of control
